Measurements from US8686044B2, “Amide derivative, pest control agent containing the amide derivative, and use of the amide derivative” (Mitsui Chemicals Agro, Inc., priority 2008, dated 2014).

Tests used:
Type in all cases: in vivo
[1] = tested on: Spodoptera litura; test: Pesticidal test against Spodoptera litura (cabbage leaf dip); details: foliar, 144 h, 2-stage larvae, examined after 6 days, 25° C., read-out: pesticidal rate; for pest or weed control at 1 ppm: concentration 1 ppm; for pest or weed control at 10 ppm: concentration 10 ppm
Method: (§1) Pesticidal Test against Spodoptera litura A piece of a cabbage leaf was immersed for 30 seconds in a chemical solution in which a test compound had been prepared at a predetermined concentration, and air-dried, and then put into a 7 cm polyethylene cup having a filter paper laid on the bottom thereof, and 2-stage larvae of Spodoptera litura were released. They were left to stand in a thermostatic chamber at 25° C., and the numbers of the living pests and the dead pests were examined after 6 days. The test was carried out with five larvae per group in two replicates. Further, the following compound (A) disclosed in the pamphlet of International Publication WO 2005/073165 was used as a comparative compound.

[2] = tested on: Plutella xylostella; test: Pesticidal test against Plutella xylostella (cabbage leaf dip); details: foliar, 144 h, 2-stage larvae, examined after 6 days, 25° C., read-out: pesticidal rate; for pest or weed control at 1 ppm: concentration 1 ppm; for pest or weed control at 10 ppm: concentration 10 ppm
Method: as §1, with “Plutella xylostella” for “Spodoptera litura”, “above” for “following”, “(A)” for “(A) disclosed in the pamphlet of International Publication WO 2005/073165”

[3] = tested on: Laodelphax striatellus; test: Pesticidal test against Laodelphax striatellus (rice seedling spray); details: 144 h, concentration 100 ppm, 3-stage larvae, examined after 6 days, 25° C., read-out: pesticidal rate
Method: Pesticidal Test against Laodelphax striatellus
2.5 ml of an acetone solution in which a test compound had been prepared at a predetermined concentration was sprayed on rice seedlings, air-dried, and then put into a glass tube having a diameter of 3 cm and a height of 13 cm, having water therein, and 3-stage larvae of Laodelphax striatellus were released and the tube was capped. They were left to stand in a thermostatic chamber at 25° C., and the numbers of the living pests and the dead pests were examined after 6 days. The test was carried out with ten larvae per group in two replicates.

CN(C(=O)c1cccc(F)c1)c1cccc(C(=O)Nc2c(Br)cc(C(F)(C(F)(F)F)C(F)(F)C(F)(F)F)cc2Br)c1 (stereo not drawn) [7-5906]
≥ 70%: pest or weed control at 1 ppm [1] | pest or weed control at 1 ppm [2] | pest or weed control at 100 ppm [3]

O=C(Nc1cccc(C(=O)Nc2c(Br)cc(C(F)(C(F)(F)F)C(F)(F)F)cc2C(F)(F)F)c1)c1ccc(Cl)nc1 [6-311]
≥ 70%: pest or weed control at 1 ppm [1] | pest or weed control at 10 ppm [2] | pest or weed control at 100 ppm [3]

O=C(Nc1cccc(C(=O)Nc2c(Br)cc(C(F)(C(F)(F)F)C(F)(F)C(F)(F)F)cc2Br)c1)c1ccc(F)cc1 (stereo not drawn) [6-5906]
≥ 70%: pest or weed control at 1 ppm [1] | pest or weed control at 1 ppm [2] | pest or weed control at 100 ppm [3]

N#Cc1cccc(C(=O)Nc2cccc(C(=O)Nc3c(Br)cc(C(F)(C(F)(F)F)C(F)(F)C(F)(F)F)cc3Br)c2)c1 (stereo not drawn) [6-45]
≥ 70%: pest or weed control at 1 ppm [1] | pest or weed control at 1 ppm [2] | pest or weed control at 100 ppm [3]

CN(C(=O)c1ccccc1)c1cccc(C(=O)N(C)c2c(Br)cc(C(F)(C(F)(F)F)C(F)(F)F)cc2C(F)(F)F)c1 [9-270]
≥ 70%: pest or weed control at 1 ppm [1] | pest or weed control at 1 ppm [2] | pest or weed control at 100 ppm [3]

O=C(Nc1cccc(C(=O)Nc2c(I)cc(C(F)(C(F)(F)F)C(F)(F)F)cc2C(F)(F)F)c1F)c1ccc(Cl)cc1Cl [6-1754]
≥ 70%: pest or weed control at 1 ppm [1] | pest or weed control at 1 ppm [2] | pest or weed control at 100 ppm [3]

O=C(Nc1cccc(C(=O)Nc2c(Br)cc(C(F)(C(F)(F)F)C(F)(F)C(F)(F)F)cc2Br)c1F)c1ccccc1F (stereo not drawn) [6-1183]
≥ 70%: pest or weed control at 1 ppm [1] | pest or weed control at 1 ppm [2] | pest or weed control at 100 ppm [3]

CN(C(=O)c1ccc(F)cc1)c1cccc(C(=O)Nc2c(Br)cc(C(F)(C(F)(F)F)C(F)(F)C(F)(F)F)cc2Br)c1F (stereo not drawn) [7-1185]
≥ 70%: pest or weed control at 1 ppm [1] | pest or weed control at 1 ppm [2] | pest or weed control at 100 ppm [3]

O=C(Nc1cccc(C(=O)Nc2c(Br)cc(C(F)(C(F)(F)F)C(F)(F)F)cc2C(F)(F)F)c1)c1cccc(F)c1 [6-270]
≥ 70%: pest or weed control at 1 ppm [1] | pest or weed control at 1 ppm [2] | pest or weed control at 100 ppm [3]

O=C(Nc1c(Br)cc(C(F)(C(F)(F)F)C(F)(F)F)cc1C(F)(F)F)c1cccc(NC(=O)c2cccnc2I)c1 [6-306]
≥ 70%: pest or weed control at 1 ppm [1] | pest or weed control at 1 ppm [2] | pest or weed control at 100 ppm [3]

CN(C(=O)c1cncnc1)c1cccc(C(=O)Nc2c(I)cc(C(F)(C(F)(F)F)C(F)(F)F)cc2C(F)(F)F)c1 [7-5909]
≥ 70%: pest or weed control at 10 ppm [1] | pest or weed control at 1 ppm [2] | pest or weed control at 100 ppm [3]

CN(C(=O)c1ccc(F)cc1)c1cccc(C(=O)Nc2c(Br)cc(C(F)(C(F)(F)F)C(F)(F)C(F)(F)F)cc2Br)c1 (stereo not drawn) [7-5907]
≥ 70%: pest or weed control at 1 ppm [1] | pest or weed control at 1 ppm [2] | pest or weed control at 100 ppm [3]

CN(C(=O)c1ccc(C#N)nc1)c1cccc(C(=O)Nc2c(Br)cc(C(F)(C(F)(F)F)C(F)(F)F)cc2C(F)(F)F)c1 [7-316]
≥ 70%: pest or weed control at 10 ppm [1] | pest or weed control at 10 ppm [2] | pest or weed control at 100 ppm [3]

N#Cc1cccc(C(=O)Nc2cccc(C(=O)Nc3c(I)cc(C(F)(C(F)(F)F)C(F)(F)F)cc3C(F)(F)F)c2)c1 [6-444]
≥ 70%: pest or weed control at 1 ppm [1] | pest or weed control at 1 ppm [2] | pest or weed control at 100 ppm [3]

O=C(Nc1cccc(C(=O)Nc2c(I)cc(C(F)(C(F)(F)F)C(F)(F)C(F)(F)F)cc2I)c1)c1ccc(F)cc1 (stereo not drawn) [6-5904]
≥ 70%: pest or weed control at 1 ppm [1] | pest or weed control at 1 ppm [2] | pest or weed control at 100 ppm [3]

CN(C(=O)c1ccccc1)c1cccc(C(=O)Nc2c(Br)cc(C(F)(C(F)(F)F)C(F)(F)F)cc2I)c1F [7-5902]
≥ 70%: pest or weed control at 1 ppm [1] | pest or weed control at 1 ppm [2] | pest or weed control at 100 ppm [3]

CN(C(=O)c1cccnc1Cl)c1cccc(C(=O)Nc2c(Br)cc(C(F)(C(F)(F)F)C(F)(F)F)cc2I)c1F [7-5903]
≥ 70%: pest or weed control at 1 ppm [1] | pest or weed control at 1 ppm [2] | pest or weed control at 100 ppm [3]

CN(C(=O)c1cccnc1Cl)c1cccc(C(=O)Nc2c(Br)cc(C(F)(C(F)(F)F)C(F)(F)F)cc2C(F)(F)F)c1 [7-304]
≥ 70%: pest or weed control at 1 ppm [1] | pest or weed control at 1 ppm [2] | pest or weed control at 100 ppm [3]

CN(C(=O)c1cccnc1Cl)c1cccc(C(=O)Nc2c(Br)cc(C(F)(C(F)(F)F)C(F)(F)F)cc2C(F)(F)F)c1F [7-1610]
≥ 70%: pest or weed control at 1 ppm [1] | pest or weed control at 1 ppm [2] | pest or weed control at 100 ppm [3]

CN(C(=O)c1ccc(C#N)cc1)c1cccc(C(=O)N(C)c2c(Br)cc(C(F)(C(F)(F)F)C(F)(F)F)cc2C(F)(F)F)c1 [9-291]
≥ 70%: pest or weed control at 1 ppm [1] | pest or weed control at 1 ppm [2] | pest or weed control at 100 ppm [3]

O=C(Nc1c(I)cc(C(F)(C(F)(F)F)C(F)(F)F)cc1C(F)(F)F)c1cccc(NC(=O)c2cccnc2Br)c1 [6-461]
≥ 70%: pest or weed control at 1 ppm [1] | pest or weed control at 1 ppm [2] | pest or weed control at 100 ppm [3]

O=C(Nc1cccc(C(=O)Nc2c(I)cc(C(F)(C(F)(F)F)C(F)(F)C(F)(F)F)cc2I)c1)c1ccccc1 (stereo not drawn) [6-71]
≥ 70%: pest or weed control at 1 ppm [1] | pest or weed control at 1 ppm [2] | pest or weed control at 100 ppm [3]

CN(C(=O)c1cccc(NC(=O)c2cccnc2Cl)c1)c1c(C(F)(F)F)cc(C(F)(C(F)(F)F)C(F)(F)F)cc1C(F)(F)F [8-840]
≥ 70%: pest or weed control at 1 ppm [1] | pest or weed control at 10 ppm [2] | pest or weed control at 100 ppm [3]

CN(C(=O)c1cccc(F)c1)c1cccc(C(=O)Nc2c(I)cc(C(F)(C(F)(F)F)C(F)(F)F)cc2C(F)(F)F)c1 [7-426]
≥ 70%: pest or weed control at 1 ppm [1] | pest or weed control at 1 ppm [2] | pest or weed control at 100 ppm [3]

CN(C(=O)c1ccc(C#N)cc1)c1cc(C(=O)Nc2c(Br)cc(C(F)(C(F)(F)F)C(F)(F)F)cc2C(F)(F)F)ccc1F [7-3369]
≥ 70%: pest or weed control at 1 ppm [1] | pest or weed control at 1 ppm [2] | pest or weed control at 100 ppm [3]

CN(C(=O)c1ccc(Cl)nc1)c1cccc(C(=O)Nc2c(Br)cc(C(F)(C(F)(F)F)C(F)(F)C(F)(F)F)cc2Br)c1F (stereo not drawn) [7-1225]
≥ 70%: pest or weed control at 1 ppm [1] | pest or weed control at 1 ppm [2] | pest or weed control at 100 ppm [3]

O=C(Nc1cccc(C(=O)Nc2c(Br)cc(C(F)(C(F)(F)F)C(F)(F)F)cc2C(F)(F)C(F)(F)F)c1F)c1ccccc1 [6-5910]
≥ 70%: pest or weed control at 1 ppm [1] | pest or weed control at 1 ppm [2] | pest or weed control at 100 ppm [3]

CN(C(=O)c1cccnc1Cl)c1cccc(C(=O)Nc2c(C(F)(F)F)cc(C(F)(C(F)(F)F)C(F)(F)F)cc2C(F)(F)F)c1 [7-840]
≥ 70%: pest or weed control at 1 ppm [1] | pest or weed control at 1 ppm [2] | pest or weed control at 100 ppm [3]

O=C(Nc1c(Br)cc(C(F)(C(F)(F)F)C(F)(F)C(F)(F)F)cc1Br)c1cccc(NC(=O)c2cccnc2Cl)c1 (stereo not drawn) [6-57]
≥ 70%: pest or weed control at 1 ppm [1] | pest or weed control at 1 ppm [2] | pest or weed control at 100 ppm [3]

CN(C(=O)c1ccc(Cl)nc1)c1cccc(C(=O)Nc2c(Br)cc(C(F)(C(F)(F)F)C(F)(F)F)cc2C(F)(F)F)c1 [7-311]
≥ 70%: pest or weed control at 1 ppm [1] | pest or weed control at 1 ppm [2] | pest or weed control at 100 ppm [3]

CN(C(=O)c1ccc(F)cc1)c1cccc(C(=O)Nc2c(I)cc(C(F)(C(F)(F)F)C(F)(F)F)cc2C(F)(F)F)c1 [7-427]
≥ 70%: pest or weed control at 1 ppm [1] | pest or weed control at 1 ppm [2] | pest or weed control at 100 ppm [3]
